Measurements reported in ChEMBL document CHEMBL5724806, “Unraveling interindividual differences and functional consequences of gut microbial metabolism of immunosuppressants” (2024).

Experiments:
Assay type in all cases: ADME
[1] = The drug is tested on the gut metagenome community of A-02 with ENA study accession number: PRJEB31790 for biotransformation under microaerobic condition. The drug concentrations were measured over 7 timepoints collected between 0 and 12 hours of incubation by liquid-chromatography-coupled mass spectrometry (LC–MS); parameters: dose 5 uM, timepoint 0, 0.75, 1.5, 3, 6, 9, 12 hours; conditions: 5 µM
[2] = The drug is tested on Gemella morbillorum strain: DSM20572 for biotransformation under microaerobic condition. The drug concentrations were measured over 6 timepoints collected between 0 and 12 hours of incubation by liquid-chromatography-coupled mass spectrometry (LC–MS); parameters: dose 5 uM, timepoint 0, 1.5, 3, 6, 9, 12 hours; conditions: 5 µM
[3] = The drug is tested on Lactobacillus reuteri strain: DSM20016 for biotransformation under anaerobic condition. The drug concentrations were measured over 6 timepoints collected between 0 and 12 hours of incubation by liquid-chromatography-coupled mass spectrometry (LC–MS); parameters: dose 5 uM, timepoint 0, 1.5, 3, 6, 9, 12 hours; conditions: limosilactobacillus reuteri, 5 µM
[4] = The drug is tested on Actinomyces naeslundi strain: DSM43013 for biotransformation under anaerobic condition. The drug concentrations were measured over 6 timepoints collected between 0 and 12 hours of incubation by liquid-chromatography-coupled mass spectrometry (LC–MS); parameters: dose 5 uM, timepoint 0, 1.5, 3, 6, 9, 12 hours; conditions: actinomyces naeslundii, 5 µM
[5] = The drug is tested on Bacteroides vulgatus strain: DSM1447 for biotransformation under anaerobic condition. The drug concentrations were measured over 6 timepoints collected between 0 and 12 hours of incubation by liquid-chromatography-coupled mass spectrometry (LC–MS); parameters: dose 5 uM, timepoint 0, 1.5, 3, 6, 9, 12 hours; conditions: phocaeicola vulgatus, 5 µM
[6] = The drug is tested on the gut metagenome community of T-04 with ENA study accession number: PRJEB31790 for biotransformation under anaerobic condition. The drug concentrations were measured over 7 timepoints collected between 0 and 12 hours of incubation by liquid-chromatography-coupled mass spectrometry (LC–MS); parameters: dose 5 uM, timepoint 0, 0.75, 1.5, 3, 6, 9, 12 hours; conditions: 5 µM
[7] = The drug is tested on Streptococcus sanguinis strain: DSM20567 for biotransformation under microaerobic condition. The drug concentrations were measured over 6 timepoints collected between 0 and 12 hours of incubation by liquid-chromatography-coupled mass spectrometry (LC–MS); parameters: dose 5 uM, timepoint 0, 1.5, 3, 6, 9, 12 hours; conditions: 5 µM
[8] = The drug is tested on the gut metagenome community of A-05 with ENA study accession number: PRJEB31790 for biotransformation under microaerobic condition. The drug concentrations were measured over 7 timepoints collected between 0 and 12 hours of incubation by liquid-chromatography-coupled mass spectrometry (LC–MS); parameters: dose 5 uM, timepoint 0, 0.75, 1.5, 3, 6, 9, 12 hours; conditions: 5 µM
[9] = The drug is tested on the gut metagenome community of A-07 with ENA study accession number: PRJEB31790 for biotransformation under anaerobic condition. The drug concentrations were measured over 7 timepoints collected between 0 and 12 hours of incubation by liquid-chromatography-coupled mass spectrometry (LC–MS); parameters: dose 5 uM, timepoint 0, 0.75, 1.5, 3, 6, 9, 12 hours; conditions: 5 µM
[10] = The drug is tested on the gut metagenome community of A-08 with ENA study accession number: PRJEB31790 for biotransformation under anaerobic condition. The drug concentrations were measured over 7 timepoints collected between 0 and 12 hours of incubation by liquid-chromatography-coupled mass spectrometry (LC–MS); parameters: dose 5 uM, timepoint 0, 0.75, 1.5, 3, 6, 9, 12 hours; conditions: 5 µM
[11] = The drug is tested on Streptococcus anginosus strain: DSM20563 for biotransformation under anaerobic condition. The drug concentrations were measured over 6 timepoints collected between 0 and 12 hours of incubation by liquid-chromatography-coupled mass spectrometry (LC–MS); parameters: dose 5 uM, timepoint 0, 1.5, 3, 6, 9, 12 hours; conditions: 5 µM
[12] = The drug is tested on the gut metagenome community of A-01 with ENA study accession number: PRJEB31790 for biotransformation under anaerobic condition. The drug concentrations were measured over 7 timepoints collected between 0 and 12 hours of incubation by liquid-chromatography-coupled mass spectrometry (LC–MS); parameters: dose 5 uM, timepoint 0, 0.75, 1.5, 3, 6, 9, 12 hours; conditions: 5 µM
[13] = The drug is tested on Actinomyces graevenitzii strain: DSM15540 for biotransformation under microaerobic condition. The drug concentrations were measured over 6 timepoints collected between 0 and 12 hours of incubation by liquid-chromatography-coupled mass spectrometry (LC–MS); parameters: dose 5 uM, timepoint 0, 1.5, 3, 6, 9, 12 hours; conditions: 5 µM
[14] = The drug is tested on Collinsella aerofaciens strain: DSM3979 for biotransformation under anaerobic condition. The drug concentrations were measured over 6 timepoints collected between 0 and 12 hours of incubation by liquid-chromatography-coupled mass spectrometry (LC–MS); parameters: dose 5 uM, timepoint 0, 1.5, 3, 6, 9, 12 hours; conditions: 5 µM
[15] = The drug is tested on Lactobacillus paracasei strain: ATCC27092 for biotransformation under microaerobic condition. The drug concentrations were measured over 6 timepoints collected between 0 and 12 hours of incubation by liquid-chromatography-coupled mass spectrometry (LC–MS); parameters: dose 5 uM, timepoint 0, 1.5, 3, 6, 9, 12 hours; conditions: lacticaseibacillus paracasei, 5 µM
[16] = The drug is tested on Eubacterium rectale strain: DSM17629 for biotransformation under anaerobic condition. The drug concentrations were measured over 6 timepoints collected between 0 and 12 hours of incubation by liquid-chromatography-coupled mass spectrometry (LC–MS); parameters: dose 5 uM, timepoint 0, 1.5, 3, 6, 9, 12 hours; conditions: agathobacter rectalis, 5 µM
[17] = The drug is tested on the gut metagenome community of A-08 with ENA study accession number: PRJEB31790 for biotransformation under microaerobic condition. The drug concentrations were measured over 7 timepoints collected between 0 and 12 hours of incubation by liquid-chromatography-coupled mass spectrometry (LC–MS); parameters: dose 5 uM, timepoint 0, 0.75, 1.5, 3, 6, 9, 12 hours; conditions: 5 µM
[18] = The drug is tested on Bifidobacterium adolescentis strain: DSM20083 for biotransformation under anaerobic condition. The drug concentrations were measured over 6 timepoints collected between 0 and 12 hours of incubation by liquid-chromatography-coupled mass spectrometry (LC–MS); parameters: dose 5 uM, timepoint 0, 1.5, 3, 6, 9, 12 hours; conditions: 5 µM
[19] = The drug is tested on the gut metagenome community of P-03 with ENA study accession number: PRJEB31790 for biotransformation under microaerobic condition. The drug concentrations were measured over 7 timepoints collected between 0 and 12 hours of incubation by liquid-chromatography-coupled mass spectrometry (LC–MS); parameters: dose 5 uM, timepoint 0, 0.75, 1.5, 3, 6, 9, 12 hours; conditions: 5 µM
[20] = The drug is tested on the gut metagenome community of T-05 with ENA study accession number: PRJEB31790 for biotransformation under anaerobic condition. The drug concentrations were measured over 7 timepoints collected between 0 and 12 hours of incubation by liquid-chromatography-coupled mass spectrometry (LC–MS); parameters: dose 5 uM, timepoint 0, 0.75, 1.5, 3, 6, 9, 12 hours; conditions: 5 µM
[21] = The drug is tested on the gut metagenome community of A-04 with ENA study accession number: PRJEB31790 for biotransformation under anaerobic condition. The drug concentrations were measured over 7 timepoints collected between 0 and 12 hours of incubation by liquid-chromatography-coupled mass spectrometry (LC–MS); parameters: dose 5 uM, timepoint 0, 0.75, 1.5, 3, 6, 9, 12 hours; conditions: 5 µM
[22] = The drug is tested on Alloscardovia omnicolens strain: DSM21503 for biotransformation under microaerobic condition. The drug concentrations were measured over 6 timepoints collected between 0 and 12 hours of incubation by liquid-chromatography-coupled mass spectrometry (LC–MS); parameters: dose 5 uM, timepoint 0, 1.5, 3, 6, 9, 12 hours; conditions: 5 µM
[23] = The drug is tested on Enterococcus faecalis strain: ATCC29212 for biotransformation under microaerobic condition. The drug concentrations were measured over 6 timepoints collected between 0 and 12 hours of incubation by liquid-chromatography-coupled mass spectrometry (LC–MS); parameters: dose 5 uM, timepoint 0, 1.5, 3, 6, 9, 12 hours; conditions: 5 µM
[24] = The drug is tested on the gut metagenome community of P-01 with ENA study accession number: PRJEB31790 for biotransformation under microaerobic condition. The drug concentrations were measured over 7 timepoints collected between 0 and 12 hours of incubation by liquid-chromatography-coupled mass spectrometry (LC–MS); parameters: dose 5 uM, timepoint 0, 0.75, 1.5, 3, 6, 9, 12 hours; conditions: 5 µM
[25] = The drug is tested on the gut metagenome community of A-07 with ENA study accession number: PRJEB31790 for biotransformation under microaerobic condition. The drug concentrations were measured over 7 timepoints collected between 0 and 12 hours of incubation by liquid-chromatography-coupled mass spectrometry (LC–MS); parameters: dose 5 uM, timepoint 0, 0.75, 1.5, 3, 6, 9, 12 hours; conditions: 5 µM

SMILES	Bacterial Biotransformation [1]	Bacterial Biotransformation [2]	Bacterial Biotransformation [3]	Bacterial Biotransformation [4]	Bacterial Biotransformation [5]	Bacterial Biotransformation [6]	Bacterial Biotransformation [7]	Bacterial Biotransformation [8]	Bacterial Biotransformation [9]	Bacterial Biotransformation [10]	Bacterial Biotransformation [11]	Bacterial Biotransformation [12]	Bacterial Biotransformation [13]	Bacterial Biotransformation [14]	Bacterial Biotransformation [15]	Bacterial Biotransformation [16]	Bacterial Biotransformation [17]	Bacterial Biotransformation [18]	Bacterial Biotransformation [19]	Bacterial Biotransformation [20]	other results
C[C@]12CCC(=O)C=C1CC[C@@H]1[C@@H]2C(=O)C[C@@]2(C)[C@H]1CC[C@]2(O)C(=O)CO [CORTISONE]	Compound metabolized	Compound NOT metabolized	Compound NOT metabolized	Compound NOT metabolized	Compound NOT metabolized	Compound NOT metabolized	Compound NOT metabolized	Compound metabolized	Compound metabolized	Compound metabolized	Compound NOT metabolized	Compound metabolized	Compound NOT metabolized	Compound NOT metabolized	Compound NOT metabolized	Compound NOT metabolized	Compound metabolized	Compound NOT metabolized	Compound metabolized	Compound metabolized	Bacterial Biotransformation [21]: Compound metabolized; Bacterial Biotransformation [22]: Compound NOT metabolized; Bacterial Biotransformation [23]: Compound NOT metabolized; Bacterial Biotransformation [24]: Compound metabolized; Bacterial Biotransformation [25]: Compound metabolized
C[C@@H]1C[C@H]2[C@@H]3CCC4=CC(=O)C=C[C@]4(C)[C@@]3(F)[C@@H](O)C[C@]2(C)[C@@]1(O)C(=O)CO [DEXAMETHASONE]	Compound metabolized	Compound NOT metabolized	Compound NOT metabolized	Compound NOT metabolized	Compound NOT metabolized	Compound NOT metabolized	Compound NOT metabolized	Compound NOT metabolized	Compound metabolized	Compound NOT metabolized	Compound NOT metabolized	Compound NOT metabolized	Compound NOT metabolized	Compound NOT metabolized	Compound NOT metabolized	Compound NOT metabolized	Compound metabolized	Compound NOT metabolized	Compound NOT metabolized	Compound NOT metabolized	Bacterial Biotransformation [21]: Compound metabolized; Bacterial Biotransformation [22]: Compound NOT metabolized; Bacterial Biotransformation [23]: Compound NOT metabolized; Bacterial Biotransformation [24]: Compound NOT metabolized; Bacterial Biotransformation [25]: Compound metabolized
COc1ccc([C@@H]2Sc3ccccc3N(CCN(C)C)C(=O)[C@@H]2OC(C)=O)cc1 [DILTIAZEM]	Compound metabolized	Compound metabolized	Compound NOT metabolized	Compound NOT metabolized	Compound NOT metabolized	Compound NOT metabolized	Compound NOT metabolized	Compound metabolized	Compound metabolized	Compound metabolized	Compound NOT metabolized	Compound metabolized	Compound NOT metabolized	Compound NOT metabolized	Compound NOT metabolized	Compound NOT metabolized	Compound metabolized	Compound NOT metabolized	Compound metabolized	Compound NOT metabolized	Bacterial Biotransformation [21]: Compound metabolized; Bacterial Biotransformation [22]: Compound NOT metabolized; Bacterial Biotransformation [23]: Compound NOT metabolized; Bacterial Biotransformation [24]: Compound metabolized; Bacterial Biotransformation [25]: Compound metabolized
